Assay results reported in paper PMC10630888, “Nuclear ERK1/2 signaling potentiation enhances neuroprotection and cognition via Importinα1/KPNA2” (EMBO Molecular Medicine, 2023).
“And” between values parts separate entries of the source, which are not always exact repeats. Equal values may be shown once.

Columns and labels:
contextual fear memory [1] = experiment: Contextual fear conditioning, Tg2576 and WT mice; assay type: in vivo, mouse; parameters: unit not given here; details: 7 months, 20 mg/kg i.p. 1 h before CFC, test 24 h later, individual mice
Protocol: Tg2576 mice were administered with RB5 or Scramble (20 mg/kg i.p.) for either 7 days, for IHC analysis, or with a single injection (20 mg/kg i.p.), for behavioral analysis.
7‐month‐old Tg2576 mice and WT mice were treated with either Scramble or RB5 (20 mg/kg, i.p.) 1 h before CFC. Mice were individually placed in the conditioning chamber for 120 s of free exploration followed by five foot‐shocks (0.7 mA, 2‐s duration, separated by 60‐s intervals) delivered through the grid floor. Context Fear Memory was assessed 24 h later by returning mice for 5 min to the conditioning chamber and not delivering a foot shock.
(§1) For all protocols, freezing behavior served as a measure of conditioned fear to the context during the conditioning and retrieval tests.

[2] = test system: 3-NP-induced striatal apoptosis; experiment: TUNEL assay in striatum, 3-NP model with RB5; assay type: in vivo, mouse; details: 7 days, individual mice
Protocol: The detection of apoptosis on cultured cells or tissue sections was carried out using the DeadEnd™ Colorimetric TUNEL System kit (Promega). Cultured cells were fixed in 4% PFA for 15 min at room temperature before undergoing TUNEL staining. Tissue sections were obtained from mice perfused with 4% PFA. Brains were subsequently stored in 30% sucrose overnight and cut into 35 μm‐thick slices using a freezing microtome. Slices were mounted on slides and processed for TUNEL staining. TUNEL was performed following the manufacturer's instructions. Briefly, slides were immersed in PBS for 5 min RT and then incubated for 25 min in a […] Proteinase K solution. Then, the slides were rinsed in 1× PBS, re‐fixed in 4% PFA for 5 min, and rinsed twice with 1× PBS. […] of equilibration buffer were added to each tissue section for 5–10 min followed by 1 h of incubation at 37°C in a humidified chamber with […] of rTdT reaction mix. After that, slides were immersed in 2× SSC solution in a Coplin jar for 15 min and washed twice in PBS 1× for 5 min. The endogenous peroxidase activity was blocked with 0.3% hydrogen peroxide for 5 min. The slides were rinsed twice in 1× PBS for 5 min and incubated for 30 min with Streptavidin HRP solution and finally DAB substrate was added to react for 10 min. A light microscope was used to acquire four representative fields per slide from cultured cells and 3–4 representative slices per mouse from all experimental groups. The number of TUNEL positive cells was counted using ImageJ software.
3‐NP (3‐Nitropropionic acid) (N5636, Sigma) was dissolved in distilled water to a concentration of 50 mg/ml (pH 7.4) and passed through a 0.2‐μm filter and kept at −80°C until use. The 3‐NP solution was administered i.p. once daily at a dose of 50 mg/kg either for 21 consecutive days in the LV‐injected mice or for 7 days in combination with RB5.

contextual fear memory [3] = experiment: Contextual fear conditioning, rats, intra-hippocampal infusion; assay type: in vivo, rat; parameters: unit not given here; details: 2 mg/ml, 1.0 μl/side into dorsal hippocampus 20 min prior to conditioning, individual rats
Protocol: Lister Hooded male rats (280–350 g) were housed in pairs, in holding rooms maintained at 21°C on a reversed‐light cycle (12 h light/dark; lights on at 10:00 P.M.). All experiments were conducted in the dark period of the rats. RB5 and Scramble peptides were infused into dorsal hippocampus.
Steel double guide cannulae aimed at the dorsal hippocampus (AP ‐3.50, relative to bregma) were surgical implanted under anesthesia at least 1 week prior to behavioral training and microinfusions. Bilateral infusions with either 2 mg/ml Scramble or RB5, 20 min prior to conditioning (pH 7.0, 1.0 μl/side, rate = […]) via the chronically indwelling cannula were carried out in awake rats using a syringe pump, connected to injectors (28 gauge, projecting 1 mm beyond the guide cannulae) by polyethylene tubing.
Conditioning was performed in one of two distinct contexts. These contexts were designed to differ in a number of distinctive characteristics including size, spatial location, odor, and lighting. During the 3 min conditioning training trial, rats received a single scrambled footshock (0.5 mA for 2 s) 2 min after being placed into one of the conditioning contexts. All rats were returned to the home cages after conditioning. Retrieval tests 3 h (postretrieval short‐term memory, STM), or 2 days (long‐term memory, LTM) after recall again consisted of exposing the rat to the conditioning context for 2 min not delivering a foot shock.
as §1

pMSK-1 = experiment: Striatal pMSK-1 immunohistochemistry 1 h after single injection; assay type: in vivo, mouse; details: single injection 20 mg/kg i.p., individual mice
Protocol: Immunohistochemistry was performed as described in Papale et al ([2016]). Briefly, 1 h after blocking in 5% normal goat serum and 0.1% Triton X‐100 solution, free‐floating sections were incubated overnight at 4°C with one of the following primary antibodies: anti‐phospho‐p44/42 MAP kinase (Thr202/Tyr204) (1:200, Cell Signaling Technology #9101), anti‐phospho–Elk‐1 (Ser383) (1:100, Cell Signaling #9181), anti‐phospho‐Kv4.2 (Thr607)‐R (1:100, Santa Cruz sc22254‐R), anti‐phospho‐MSK‐1 (1:100 Cell Signaling Technology #9595), anti‐phospho‐MEK1/2 (Ser218/222) (1:100, sc‐7995 Santa Cruz Biotechnology), c‐Fos (1:100, sc‐52 Santa Cruz Biotechnology), tyrosine Hydroxylase (monoclonal 1:1,000, Sigma Aldrich, Italy) and anti‐DARPP‐32 (H3) (1:100, Santa Cruz Biotechnology, #sc‐271111) overnight at 4°C. […]
For in vivo immunohistochemistry experiments, images were acquired from the dorsal striatum using a Leica DM IRB microscope under a 20× objective. The number of p‐ERK, p‐MSK‐1, p‐ELK, p‐MEK‐1, p‐VG K+, c‐Fos, and DARPP‐32 positive cells was counted in 2–3 consecutive sections per mouse, bilaterally and averaged across the sections using the ImageJ software by a blind investigator to the condition. Estimation of nigral cell loss was assessed by quantifying the number of TH‐immunopositive neurons of the SNc in 360 μm‐spaced sections for each animal.

[4] = peptide 20 mg/kg i.p. twice a day plus 3-NP 50 mg/kg i.p. once a day
[5] = peptide 20 mg/kg i.p. twice a day plus saline

| Substance | Freezing behavior, contextual fear memory (contextual fear memory [1]; Tg2576 mice) | Freezing behavior, contextual fear memory (contextual fear memory [1]; WT mice) | TUNEL positive cells in striatum [2, 4] | TUNEL positive cells in striatum [2, 5] | Freezing behavior (contextual fear memory [3]; LTM, 2 days) | Freezing behavior (contextual fear memory [3]; PostUS) | Freezing behavior (contextual fear memory [3]; PreUS) | Freezing behavior (contextual fear memory [3]; STM, 3 h) | pMSK-1 positive cells in striatum (pMSK-1) |
| --- | --- | --- | --- | --- | --- | --- | --- | --- | --- |
| SCR: ineffective Scramble version of RB5 containing a TAT sequence (GRKKRRQRRRPPRVGPGVPEGVGVAVFGVKEPGQTGDVGPVGE) [reference compound] | 28.67 and 36 and 36.67 and 25.33 and 43.67 and 29.67 and 28 | 96.67 and 87.67 and 96.33 and 88.67 and 64 and 57.67 and 82.67 | 360.976 and 175.61 and 179.533 and 215.44 and 403.95 and 136.585 and 370.732 | 87.8049 and 58.5366 and 107.72 and 89.7666 and 104.728 and 165.854 | 33.3 (3×) and 58.3 and 16.7 (2×) | 16.7 (2×) and 50 (2×) and 33.3 and 0 | 0 | 33.3 (2×) and 41.7 and 16.7 and 25 and 8.3 | 614.286 and 328.571 and 409.524 and 680.952 and 885.714 and 485.714 and 509.524 and 319.048 and 571.429 and 461.905 and 338.095 and 209.524 and 466.667 and 700 and 519.048 |
| GRKKRRQRRRPPQGGGGGEPRRTEGVGPGVPGEVEMVKGQPFDV [RB5, six D-amino acids, acetylated N-terminus] | fully prevented the memory impairment and 56.33 and 63.67 and 67 and 57.33 and 84 and 76.33 and 95.67 and 82.67 | 93.33 and 94.33 and 78 and 88.33 and 70.33 and 78.33 and 85 | significantly reduced neuronal death and 87.8049 and 8.8692 and 39.0244 and 107.72 and 134.65 and 179.533 and 163.212 and 136.585 and 117.073 | 29.2683 and 60.9756 and 89.7666 and 81.606 and 71.8133 and 143.627 and 134.65 and 43.3604 | markedly enhanced and 33.3 and 58.3 and 83.3 and 50 | markedly enhanced and 83.3 and 66.7 | 0 | markedly enhanced and 58.3 and 75 and 91.7 and 50 and 66.7 | selectively activated and 947.619 and 433.333 and 542.857 and 395.238 and 690.476 and 838.095 and 642.857 and 1019.05 and 728.571 and 490.476 and 328.571 and 904.762 and 1233.33 and 671.429 |
